Test results published in the supplement of paper PMC10307832.

Legend:
Experiment in all cases: relative viability (nuclei count vs DMSO), 5 days (fraction); higher = more cells survive
BX 795 = compound: O=C(NCCCNc1nc(Nc2cccc(NC(=O)N3CCCC3)c2)ncc1I)c1cccs1 [BX 795]
How it was run: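 In 1536-well plates, lung cancer cell lines rested overnight at 37 °C before five library-drug doses (not always all listed), √10 apart, were pinned onto vehicle-anchored plates. Nuclei were counted with MetaXpress from 4× Hoechst images taken after 5 days without medium change. Viability compares treated-well with vehicle-well nuclei as a median over plates, and plates needed control CV below 25% plus at least one doubling to pass.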

BX 795 + Palbociclib = compound: O=C(NCCCNc1nc(Nc2cccc(NC(=O)N3CCCC3)c2)ncc1I)c1cccs1 [BX 795] + CC(=O)c1c(C)c2cnc(Nc3ccc(N4CCNCC4)cn3)nc2n(C2CCCC2)c1=O [Palbociclib] (partner 0.5 µM)
How it was run: (§1)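 Values are medians from duplicate plates. Each reflects relative viability, defined as the nuclei count of treated wells over that of vehicle wells. Lung cancer cell lines in 1536-well plates were pin-tool dosed one day after seeding with one drug alone or with a fixed anchor-drug dose plus five library-drug doses (not always all listed) in √10 steps, then fixed, stained and imaged at 4× after 5 days.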

BX 795 + Foretinib = compound: O=C(NCCCNc1nc(Nc2cccc(NC(=O)N3CCCC3)c2)ncc1I)c1cccs1 [BX 795] + COc1cc2c(Oc3ccc(NC(=O)C4(C(=O)Nc5ccc(F)cc5)CC4)cc3F)ccnc2cc1OCCCN1CCOCC1 [Foretinib] (partner 0.25 µM)
How it was run: as §1

BX 795 + Lapatinib = compound: O=C(NCCCNc1nc(Nc2cccc(NC(=O)N3CCCC3)c2)ncc1I)c1cccs1 [BX 795] + CS(=O)(=O)CCNCc1ccc(-c2ccc3ncnc(Nc4ccc(OCc5cccc(F)c5)c(Cl)c4)c3c2)o1 [Lapatinib] (partner 2 µM)
How it was run: as §1

BX 795 + Olaparib = compound: O=C(NCCCNc1nc(Nc2cccc(NC(=O)N3CCCC3)c2)ncc1I)c1cccs1 [BX 795] + O=C(c1cc(Cc2n[nH]c(=O)c3ccccc23)ccc1F)N1CCN(C(=O)C2CC2)CC1 [Olaparib] (partner 8 µM)
How it was run: as §1

Row | Cell Line | relative viability (BX 795; 0.04 µM) | relative viability (BX 795; 0.1265 µM) | relative viability (BX 795; 0.4 µM) | relative viability (BX 795; 1.265 µM) | relative viability (BX 795 + Palbociclib; first compound 0.04 µM) | relative viability (BX 795 + Palbociclib; first compound 0.1265 µM) | relative viability (BX 795 + Palbociclib; first compound 0.4 µM) | relative viability (BX 795 + Palbociclib; first compound 1.265 µM) | relative viability (BX 795 + Foretinib; first compound 0.04 µM) | relative viability (BX 795 + Foretinib; first compound 0.1265 µM) | relative viability (BX 795 + Foretinib; first compound 0.4 µM) | relative viability (BX 795 + Foretinib; first compound 1.265 µM) | relative viability (BX 795 + Lapatinib; first compound 0.04 µM) | relative viability (BX 795 + Lapatinib; first compound 0.1265 µM) | relative viability (BX 795 + Lapatinib; first compound 0.4 µM) | relative viability (BX 795 + Lapatinib; first compound 1.265 µM) | relative viability (BX 795 + Olaparib; first compound 0.04 µM) | relative viability (BX 795 + Olaparib; first compound 0.1265 µM) | relative viability (BX 795 + Olaparib; first compound 0.4 µM) | relative viability (BX 795 + Olaparib; first compound 1.265 µM)
1 | NCI-H1355 | 1.01 | 1.01 | 1.02 | 0.873 | 0.418 | 0.346 | 0.388 | 0.393 | 1.03 | 1.07 | 1.09 | 0.773 | 1.05 | 0.976 | 1.11 | 0.946 | 0.827 | 0.663 | 0.806 | 0.571
2 | HCC-827 | 1 | 1.02 | 1.04 | 1.01 | 0.551 | 0.501 | 0.478 | 0.484 | 1.18 | 1.12 | 1.09 | 1.04 | 0.186 | 0.18 | 0.215 | 0.191 | 0.448 | 0.621 | 0.525 | 0.639
3 | LCLC-103H | 1.02 | 1.01 | 0.937 | 0.985 | 0.441 | 0.511 | 0.529 | 0.445 | 0.848 | 0.843 | 0.847 | 0.621 | – | – | – | – | 0.794 | 0.73 | 0.761 | 0.763
4 | NCI-H1915 | 1.03 | 0.974 | 0.955 | 0.903 | 0.63 | 0.501 | 0.637 | 0.485 | 1.07 | 1.1 | 1.08 | 0.995 | 0.947 | 0.951 | 0.947 | 0.827 | 0.297 | 0.26 | 0.217 | 0.242
5 | NCI-H460 | 0.995 | 1.08 | 0.991 | 0.954 | 0.163 | 0.156 | 0.0784 | 0.149 | 1.03 | 1.16 | 1.01 | 0.922 | 0.952 | 1.62 | 0.892 | 0.729 | 0.371 | 0.427 | 0.154 | 0.346
6 | SW 1573 | 0.918 | 0.984 | 1.1 | 0.651 | 0.537 | 0.428 | 0.468 | 0.172 | 0.916 | 0.844 | 0.971 | 0.777 | 1.13 | 1.18 | 1.26 | 0.781 | 0.673 | 0.531 | 0.669 | 0.238
7 | NCI-H23 | 1.07 | 0.952 | 0.896 | 0.769 | 0.457 | 0.43 | 0.567 | 0.464 | 0.943 | 0.872 | 1 | 0.472 | 1.24 | 1.26 | 0.812 | 0.884 | 0.335 | 0.308 | 0.247 | 0.225
8 | BEN | 0.907 | 1.12 | 0.952 | 1.05 | 0.454 | 0.436 | 0.49 | 0.491 | 0.54 | 0.645 | 0.818 | 0.803 | 0.663 | 0.841 | 0.607 | 0.672 | 1.19 | 1.34 | 0.797 | 1.04
9 | COR-L 105 | 0.985 | 0.868 | 0.776 | 0.661 | 0.453 | 0.338 | 0.401 | 0.314 | 1.29 | 0.962 | 0.861 | 0.662 | 0.354 | 0.334 | 0.308 | 0.293 | 0.705 | 0.491 | 0.644 | 0.562
10 | NCI-H2085 | 1.01 | 1.03 | 0.981 | 0.97 | 0.466 | 0.465 | 0.515 | 0.51 | 1.05 | 1.05 | 0.873 | 0.809 | 0.881 | 0.781 | 0.741 | 0.642 | 0.827 | 0.833 | 0.914 | 0.72
11 | NCI-H2228 | 1.07 | 1.21 | 1.04 | 0.871 | 1.07 | 0.787 | 0.974 | 0.658 | 1.05 | 0.967 | 1.13 | 0.625 | 0.87 | 1.3 | 0.791 | 0.319 | 0.788 | 0.74 | 0.559 | 0.311
12 | ChaGo-K-1 | 0.947 | 1.06 | 0.959 | 0.981 | 0.889 | 0.929 | 0.928 | 0.705 | 0.993 | 0.89 | 0.982 | 0.767 | – | – | – | – | 0.424 | 0.447 | 0.415 | 0.311
13 | UMC-11 | 0.896 | 0.995 | 0.802 | 0.675 | 0.301 | 0.355 | 0.306 | 0.333 | 0.85 | 1.06 | 0.805 | 0.168 | 0.949 | 1.05 | 0.757 | 0.333 | 0.381 | 0.32 | 0.861 | 0.27
14 | A-427 | 1.08 | 0.905 | 0.998 | 0.808 | 0.562 | 0.482 | 0.508 | 0.502 | 0.98 | 1.12 | 1.07 | 0.897 | 0.842 | 1 | 1.06 | 0.886 | 0.826 | 0.68 | 0.672 | 0.641
15 | SK-LU-1 | 0.91 | 1.18 | 0.629 | 0.836 | 0.384 | 0.348 | 0.328 | 0.392 | 0.762 | 0.902 | – | 0.569 | 0.883 | 1.1 | 0.801 | 0.469 | 0.484 | 0.519 | 0.31 | 0.413
16 | NCI-H1666 | 1.06 | 1.03 | 1.01 | 0.925 | 0.536 | 0.641 | 0.7 | 0.657 | 1.07 | 1.05 | 1.11 | 0.787 | 0.858 | 0.653 | 0.695 | 0.656 | 0.939 | 0.707 | 0.938 | 0.726
